The OligoGym collection
HELM strings list units from the 5' end as sugar, base in round brackets, then linkage (d deoxyribose, r ribose, m 2'-O-methyl, p phosphodiester). Strings are as the collection lists them; they lack the last nucleoside at the 3' end of the tested compound. [moe] = 2'-O-(2-methoxyethyl) (MOE); [sp] = phosphorothioate linkage; [m5C] = 5-methylcytosine

These substances were tested against APP (assay: mouse, dose not given). Settings: ASO.

Going from “RNA1{[moe](T)[sp].[moe](T)p.[moe](G)p.[moe](T)p.[moe](A)[sp].d(G)[sp].d(G)[sp].d(A)[sp].d(A)[sp].d([m5C])[sp].d(T)[sp].d([m5C])[sp].d(G)[sp].d(A)[sp].d(A)[sp].[moe]([m5C])p.[moe]([m5C])p.[moe](A)[sp].[moe]([m5C])}$$$$ (last 3' nucleoside missing)” to “RNA1{[moe]([m5C])[sp].[moe](T)p.[moe]([m5C])p.[moe](T)p.[moe]([m5C])p.[moe](A)[sp].d(T)[sp].d(A)[sp].d(G)[sp].d(T)[sp].d([m5C])[sp].d(T)[sp].d(T)[sp].d(A)[sp].d(A)[sp].d(T)[sp].[moe](T)p.[moe]([m5C])[sp].[moe]([m5C])}$$$$ (last 3' nucleoside missing)”, the 3 h FOB score falls from 2 score 0-7 to 0.75 score 0-7.

First: RNA1{[moe]([m5C])[sp].[moe](T)p.[moe](T)p.[moe]([m5C])p.[moe](T)[sp].d(G)[sp].d([m5C])[sp].d(A)[sp].d(A)[sp].d(A)[sp].d(G)[sp].d(A)[sp].d(A)[sp].d([m5C])[sp].d(A)[sp].[moe]([m5C])p.[moe]([m5C])p.[moe](A)[sp].[moe](A)}$$$$ (last 3' nucleoside missing)
Second: RNA1{[moe](T)[sp].[moe]([m5C])p.[moe](T)p.[moe]([m5C])p.[moe](A)[sp].d(T)[sp].d(A)[sp].d(G)[sp].d(T)[sp].d([m5C])[sp].d(T)[sp].d(T)[sp].d(A)[sp].d(A)[sp].d(T)[sp].[moe](T)p.[moe]([m5C])p.[moe]([m5C])[sp].[moe]([m5C])}$$$$ (last 3' nucleoside missing)
The 3 h FOB score of the first is higher: 0.5 score 0-7 for the first, 0 score 0-7 for the second.

First: RNA1{[moe]([m5C])[sp].[moe](A)p.[moe](T)p.[moe]([m5C])p.[moe](A)[sp].d([m5C])[sp].d(T)[sp].d(T)[sp].d(A)[sp].d([m5C])[sp].d(A)[sp].d(A)[sp].d(A)[sp].d([m5C])[sp].d(T)[sp].[moe]([m5C])p.[moe](A)p.[moe]([m5C])[sp].[moe]([m5C])}$$$$ (last 3' nucleoside missing)
Second: RNA1{[moe](G)[sp].[moe]([m5C])p.[moe](A)p.[moe](A)p.[moe](A)[sp].d(G)[sp].d(A)[sp].d(A)[sp].d([m5C])[sp].d(A)[sp].d([m5C])[sp].d([m5C])[sp].d(A)[sp].d(A)[sp].d(T)[sp].[moe](T)p.[moe](T)p.[moe](T)[sp].[moe](T)}$$$$ (last 3' nucleoside missing)
The 3 h FOB score of the first is lower: 0.5 score 0-7 for the first, 3 score 0-7 for the second.

First: RNA1{[moe](A)[sp].[moe](A)p.[moe](G)p.[moe]([m5C])p.[moe](T)[sp].d(T)[sp].d(A)[sp].d([m5C])[sp].d(A)[sp].d(T)[sp].d([m5C])[sp].d(A)[sp].d(T)[sp].d(T)[sp].d(T)[sp].[moe](T)p.[moe]([m5C])p.[moe](T)[sp].[moe](T)}$$$$ (last 3' nucleoside missing)
Second: RNA1{[moe](T)[sp].[moe](T)p.[moe]([m5C])p.[moe](A)p.[moe]([m5C])[sp].d(A)[sp].d(G)[sp].d(T)[sp].d(T)[sp].d(T)[sp].d(A)[sp].d([m5C])[sp].d([m5C])[sp].d([m5C])[sp].d([m5C])[sp].[moe](A)p.[moe](A)p.[moe](G)[sp].[moe]([m5C])}$$$$ (last 3' nucleoside missing)
The 3 h FOB score of the first is higher: 1.33 score 0-7 for the first, 0 score 0-7 for the second.

Compared with “RNA1{[moe](G)[sp].[moe](T)p.[moe]([m5C])p.[moe]([m5C])p.[moe](A)[sp].d(T)[sp].d(T)[sp].d(A)[sp].d([m5C])[sp].d(A)[sp].d(A)[sp].d(A)[sp].d([m5C])[sp].d(A)[sp].d(A)[sp].[moe](G)p.[moe](T)p.[moe](A)[sp].[moe](A)}$$$$ (last 3' nucleoside missing)”, “RNA1{[moe](G)[sp].[moe](T)p.[moe](A)p.[moe]([m5C])p.[moe](T)[sp].d(G)[sp].d(T)[sp].d(T)[sp].d(T)[sp].d([m5C])[sp].d(T)[sp].d(T)[sp].d([m5C])[sp].d(T)[sp].d(T)[sp].[moe]([m5C])p.[moe](A)p.[moe](G)[sp].[moe]([m5C])}$$$$ (last 3' nucleoside missing)” is higher in 3 h FOB score: 1 score 0-7 for the first, 2 score 0-7 for the second.

Compared with “RNA1{[moe]([m5C])[sp].[moe](T)p.[moe](T)p.[moe](A)p.[moe]([m5C])[sp].d(A)[sp].d(T)[sp].d([m5C])[sp].d(A)[sp].d(T)[sp].d(T)[sp].d(T)[sp].d(T)[sp].d([m5C])[sp].d(T)[sp].[moe](T)p.[moe](G)p.[moe]([m5C])[sp].[moe](A)}$$$$ (last 3' nucleoside missing)”, “RNA1{[moe]([m5C])[sp].[moe](T)p.[moe](T)p.[moe]([m5C])p.[moe]([m5C])p.[moe]([m5C])p.d(A)[sp].d(T)[sp].d(T)[sp].d([m5C])[sp].d(T)[sp].d([m5C])[sp].d(T)[sp].d([m5C])[sp].d(A)[sp].d(T)[sp].[moe](G)p.[moe](A)[sp].[moe]([m5C])}$$$$ (last 3' nucleoside missing)” is lower in 3 h FOB score: 1 score 0-7 for the first, 0 score 0-7 for the second.

Compared with “RNA1{[moe]([m5C])[sp].[moe](A)p.[moe](G)p.[moe]([m5C])p.[moe]([m5C])[sp].d([m5C])[sp].d([m5C])[sp].d(A)[sp].d(A)[sp].d(A)[sp].d(A)[sp].d(G)[sp].d(A)[sp].d(A)[sp].d(T)[sp].[moe](G)p.[moe]([m5C])p.[moe]([m5C])[sp].[moe](A)}$$$$ (last 3' nucleoside missing)”, “RNA1{[moe](G)[sp].[moe]([m5C])p.[moe](A)p.[moe](G)p.[moe](T)[sp].d([m5C])[sp].d(A)[sp].d(A)[sp].d(T)[sp].d([m5C])[sp].d(A)[sp].d(A)[sp].d([m5C])[sp].d(T)[sp].d([m5C])[sp].[moe]([m5C])p.[moe](A)p.[moe](A)[sp].[moe]([m5C])}$$$$ (last 3' nucleoside missing)” is lower in 3 h FOB score: 0.5 score 0-7 for the first, 0 score 0-7 for the second.

First: RNA1{[moe](T)[sp].[moe]([m5C])p.[moe](G)p.[moe](G)p.[moe](A)[sp].d([m5C])[sp].d(T)[sp].d(T)[sp].d(A)[sp].d([m5C])[sp].d(T)[sp].d(G)[sp].d(T)[sp].d(A)[sp].d(A)[sp].[moe](T)p.[moe](G)p.[moe](G)[sp].[moe](G)}$$$$ (last 3' nucleoside missing)
Second: RNA1{[moe](A)[sp].[moe](T)p.[moe](G)p.[moe](T)p.[moe](T)[sp].d([m5C])[sp].d(A)[sp].d(T)[sp].d(T)[sp].d([m5C])[sp].d(T)[sp].d([m5C])[sp].d(A)[sp].d(T)[sp].d([m5C])[sp].[moe]([m5C])p.[moe]([m5C])p.[moe]([m5C])[sp].[moe](A)}$$$$ (last 3' nucleoside missing)
The 3 h FOB score of the first is higher: 1.25 score 0-7 for the first, 1 score 0-7 for the second.

First: RNA1{[moe](G)[sp].[moe]([m5C])p.[moe](A)p.[moe]([m5C])p.[moe](A)[sp].d(A)[sp].d([m5C])[sp].d(T)[sp].d(T)[sp].d(T)[sp].d(A)[sp].d(T)[sp].d(T)[sp].d(T)[sp].d([m5C])[sp].[moe](T)p.[moe](A)p.[moe](G)[sp].[moe](A)}$$$$ (last 3' nucleoside missing)
Second: RNA1{[moe]([m5C])[sp].[moe]([m5C])p.[moe](A)p.[moe]([m5C])p.[moe](G)[sp].d(A)[sp].d([m5C])[sp].d([m5C])[sp].d(T)[sp].d(T)[sp].d(A)[sp].d([m5C])[sp].d(A)[sp].d([m5C])[sp].d(T)[sp].[moe](A)p.[moe](G)p.[moe](G)[sp].[moe](T)}$$$$ (last 3' nucleoside missing)
The 3 h FOB score of the first is higher: 1 score 0-7 for the first, 0 score 0-7 for the second.

Going from “RNA1{[moe](T)[sp].[moe](A)p.[moe](T)p.[moe](G)p.[moe](A)[sp].d([m5C])[sp].d(A)[sp].d(A)[sp].d([m5C])[sp].d(A)[sp].d([m5C])[sp].d([m5C])[sp].d(G)[sp].d([m5C])[sp].d([m5C])[sp].[moe]([m5C])p.[moe](A)p.[moe]([m5C])[sp].[moe]([m5C])}$$$$ (last 3' nucleoside missing)” to “RNA1{[moe](G)[sp].[moe]([m5C])p.[moe](G)p.[moe]([m5C])p.[moe](A)[sp].d(T)[sp].d(T)[sp].d(T)[sp].d(A)[sp].d(T)[sp].d(A)[sp].d([m5C])[sp].d(A)[sp].d(A)[sp].d(T)[sp].[moe](A)p.[moe](T)p.[moe](A)[sp].[moe]([m5C])}$$$$ (last 3' nucleoside missing)”, the 3 h FOB score falls from 4 score 0-7 to 0 score 0-7.

First: RNA1{[moe](T)[sp].[moe](G)p.[moe](G)p.[moe](T)p.[moe](T)[sp].d(T)[sp].d(A)[sp].d([m5C])[sp].d([m5C])[sp].d(T)[sp].d(T)[sp].d(T)[sp].d(A)[sp].d(A)[sp].d([m5C])[sp].[moe](A)p.[moe](T)p.[moe](T)[sp].[moe]([m5C])}$$$$ (last 3' nucleoside missing)
Second: RNA1{[moe]([m5C])[sp].[moe](T)p.[moe]([m5C])p.[moe]([m5C])p.[moe](A)[sp].d(A)[sp].d(T)[sp].d(T)[sp].d(T)[sp].d(T)[sp].d(A)[sp].d(A)[sp].d([m5C])[sp].d(T)[sp].d(T)[sp].[moe](G)p.[moe]([m5C])p.[moe](A)[sp].[moe]([m5C])}$$$$ (last 3' nucleoside missing)
The 3 h FOB score of the first is lower: 0 score 0-7 for the first, 2.75 score 0-7 for the second.

“RNA1{[moe](G)[sp].[moe]([m5C])p.[moe](T)p.[moe](T)p.[moe]([m5C])[sp].d(A)[sp].d(T)[sp].d(T)[sp].d(A)[sp].d([m5C])[sp].d([m5C])[sp].d(A)[sp].d([m5C])[sp].d(T)[sp].d(T)[sp].[moe]([m5C])p.[moe](T)p.[moe](G)[sp].[moe](A)}$$$$ (last 3' nucleoside missing)” and “RNA1{[moe](A)[sp].[moe](G)p.[moe]([m5C])p.[moe](T)p.[moe](T)[sp].d(A)[sp].d([m5C])[sp].d(A)[sp].d(T)[sp].d([m5C])[sp].d(A)[sp].d(T)[sp].d(T)[sp].d(T)[sp].d(T)[sp].[moe]([m5C])p.[moe](T)p.[moe](T)[sp].[moe](G)}$$$$ (last 3' nucleoside missing)” are the same in 3 h FOB score: 1 score 0-7 for the first, 1 score 0-7 for the second.

Work on “RNA1{[moe](G)[sp].[moe](A)p.[moe](T)p.[moe]([m5C])p.[moe](T)p.[moe](G)p.d(A)[sp].d(A)[sp].d(T)[sp].d([m5C])[sp].d([m5C])[sp].d([m5C])[sp].d(A)[sp].d([m5C])[sp].d(T)[sp].d(T)[sp].[moe]([m5C])p.[moe]([m5C])[sp].[moe]([m5C])}$$$$ (last 3' nucleoside missing)” yielded a 3 h FOB score of 0 score 0-7.
